These results are taken from ChEMBL document CHEMBL5465560, “Selectivity Literature for EUbOPEN Chemogenomic Library” (2024).

The structures appear in SMILES notation.

Assay [1] addresses T1, Serine/threonine-protein kinase 17A (Homo sapiens) (UniProt Q9UEE5).
T1 sequence (whole entry): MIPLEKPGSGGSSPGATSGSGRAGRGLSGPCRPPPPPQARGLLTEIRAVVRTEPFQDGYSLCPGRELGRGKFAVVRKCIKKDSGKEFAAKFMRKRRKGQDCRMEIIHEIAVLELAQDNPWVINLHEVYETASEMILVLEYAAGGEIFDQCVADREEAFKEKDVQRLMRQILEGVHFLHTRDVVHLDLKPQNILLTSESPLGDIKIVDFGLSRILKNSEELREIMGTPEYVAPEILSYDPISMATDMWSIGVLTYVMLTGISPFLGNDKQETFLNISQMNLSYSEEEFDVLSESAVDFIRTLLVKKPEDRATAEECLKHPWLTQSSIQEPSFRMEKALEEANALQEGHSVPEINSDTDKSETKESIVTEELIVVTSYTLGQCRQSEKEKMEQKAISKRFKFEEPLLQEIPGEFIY
Particulars: at 10 µM.

Assay [2] concerns the target Glycogen synthase kinase-3 alpha (Homo sapiens, UniProt P49840). The assay can be described thus: Selectivity interaction (Millipore kinase profiler) EUB0000124b GSK3A. Particulars: at 10 µM.
Assay [3] has as its target T2, Serine/threonine-protein kinase Chk1 (Homo sapiens) (UniProt O14757).
T2 sequence (whole entry): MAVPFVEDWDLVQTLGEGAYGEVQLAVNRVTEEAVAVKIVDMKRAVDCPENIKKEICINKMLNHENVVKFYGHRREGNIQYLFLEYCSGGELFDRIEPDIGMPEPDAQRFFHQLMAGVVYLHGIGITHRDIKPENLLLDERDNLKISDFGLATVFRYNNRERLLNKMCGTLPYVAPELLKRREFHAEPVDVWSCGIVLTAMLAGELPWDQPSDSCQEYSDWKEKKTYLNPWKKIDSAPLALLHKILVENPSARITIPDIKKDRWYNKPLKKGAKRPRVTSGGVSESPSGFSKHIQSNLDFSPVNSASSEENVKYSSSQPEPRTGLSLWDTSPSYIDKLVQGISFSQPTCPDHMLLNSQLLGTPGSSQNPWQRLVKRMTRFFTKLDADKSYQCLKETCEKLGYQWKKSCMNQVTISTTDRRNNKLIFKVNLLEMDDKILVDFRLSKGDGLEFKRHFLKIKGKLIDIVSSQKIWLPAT
The assay can be described thus: Selectivity interaction (KinomeScan (DiscoverX)) EUB0001049a CHEK1. Particulars: at 1 µM.

Assay [4] has as its target T3, Ephrin type-A receptor 3 (Homo sapiens) (UniProt P29320).
T3 sequence (whole entry): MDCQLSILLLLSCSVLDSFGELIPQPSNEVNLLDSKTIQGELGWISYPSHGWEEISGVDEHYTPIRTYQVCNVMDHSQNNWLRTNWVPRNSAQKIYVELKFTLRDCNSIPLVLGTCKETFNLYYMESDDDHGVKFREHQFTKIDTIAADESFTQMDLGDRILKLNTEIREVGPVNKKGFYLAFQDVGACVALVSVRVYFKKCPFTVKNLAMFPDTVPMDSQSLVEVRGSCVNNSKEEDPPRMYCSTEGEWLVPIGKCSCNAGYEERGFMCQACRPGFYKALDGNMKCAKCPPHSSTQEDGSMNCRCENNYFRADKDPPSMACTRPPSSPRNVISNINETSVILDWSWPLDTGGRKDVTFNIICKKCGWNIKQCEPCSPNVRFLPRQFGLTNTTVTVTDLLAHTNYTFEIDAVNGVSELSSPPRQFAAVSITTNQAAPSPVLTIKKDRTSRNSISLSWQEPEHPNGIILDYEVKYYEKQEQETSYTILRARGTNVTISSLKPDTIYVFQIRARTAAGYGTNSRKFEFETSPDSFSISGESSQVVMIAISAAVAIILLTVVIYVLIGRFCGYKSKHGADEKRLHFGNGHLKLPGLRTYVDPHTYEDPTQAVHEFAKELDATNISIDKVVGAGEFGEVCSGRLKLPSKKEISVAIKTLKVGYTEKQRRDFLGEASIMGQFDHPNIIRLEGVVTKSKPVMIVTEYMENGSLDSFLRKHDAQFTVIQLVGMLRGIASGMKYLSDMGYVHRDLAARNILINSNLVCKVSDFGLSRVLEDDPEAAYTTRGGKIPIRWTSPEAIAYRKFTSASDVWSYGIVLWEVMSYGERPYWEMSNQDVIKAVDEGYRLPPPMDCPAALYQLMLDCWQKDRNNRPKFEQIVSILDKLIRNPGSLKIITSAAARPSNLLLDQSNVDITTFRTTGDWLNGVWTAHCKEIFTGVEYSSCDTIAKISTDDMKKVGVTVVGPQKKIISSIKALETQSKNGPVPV
The assay can be described thus: Selectivity interaction (KinomeScan (DiscoverX)) EUB0000655a EPHA3. Particulars: at 10 µM.

Assay [5] has as its target T4, Serine/threonine-protein kinase 3 (Homo sapiens) (UniProt Q13188).
T4 sequence (whole entry): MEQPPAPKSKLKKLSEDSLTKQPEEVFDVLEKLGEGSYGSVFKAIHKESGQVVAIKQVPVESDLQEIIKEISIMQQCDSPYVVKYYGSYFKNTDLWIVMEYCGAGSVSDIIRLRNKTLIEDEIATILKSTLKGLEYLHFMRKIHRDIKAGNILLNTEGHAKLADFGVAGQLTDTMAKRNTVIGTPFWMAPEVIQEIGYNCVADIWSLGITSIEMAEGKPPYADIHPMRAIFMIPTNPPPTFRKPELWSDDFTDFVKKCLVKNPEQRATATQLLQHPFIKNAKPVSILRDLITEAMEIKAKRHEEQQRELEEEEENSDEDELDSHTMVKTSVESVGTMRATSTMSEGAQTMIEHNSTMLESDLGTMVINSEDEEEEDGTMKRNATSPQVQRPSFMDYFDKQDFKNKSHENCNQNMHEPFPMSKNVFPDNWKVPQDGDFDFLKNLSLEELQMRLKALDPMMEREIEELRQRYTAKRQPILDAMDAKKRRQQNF
The assay can be described thus: Selectivity interaction (KinomeScan (DiscoverX)) EUB0000695a STK3. Particulars: at 100 nM.

The subject of assay [6] is Tyrosine-protein kinase receptor UFO (Homo sapiens), P30530 [R499C]. Nature of the assay: Selectivity interaction (LanthaScreen Eu Kinase Binding Assay) EUB0001632a AXL. Particulars: at 10 µM.
Assay [7] has as its target Receptor-type tyrosine-protein kinase FLT3 (Homo sapiens) (UniProt P36888). The assay can be described thus: Selectivity interaction (Kinase panel (Invitrogen)) EUB0000639a FLT3. Particulars: at 200 nM.
The target in assay [8] is Mitogen-activated protein kinase kinase kinase 1 (Homo sapiens, UniProt Q13233). Nature of the assay: Selectivity interaction (KinomeScan (DiscoverX)) EUB0000229b MAP3K1. The following applies: at 10 µM.
Chain of Mitogen-activated protein kinase kinase kinase 1 (Q13233 whole entry): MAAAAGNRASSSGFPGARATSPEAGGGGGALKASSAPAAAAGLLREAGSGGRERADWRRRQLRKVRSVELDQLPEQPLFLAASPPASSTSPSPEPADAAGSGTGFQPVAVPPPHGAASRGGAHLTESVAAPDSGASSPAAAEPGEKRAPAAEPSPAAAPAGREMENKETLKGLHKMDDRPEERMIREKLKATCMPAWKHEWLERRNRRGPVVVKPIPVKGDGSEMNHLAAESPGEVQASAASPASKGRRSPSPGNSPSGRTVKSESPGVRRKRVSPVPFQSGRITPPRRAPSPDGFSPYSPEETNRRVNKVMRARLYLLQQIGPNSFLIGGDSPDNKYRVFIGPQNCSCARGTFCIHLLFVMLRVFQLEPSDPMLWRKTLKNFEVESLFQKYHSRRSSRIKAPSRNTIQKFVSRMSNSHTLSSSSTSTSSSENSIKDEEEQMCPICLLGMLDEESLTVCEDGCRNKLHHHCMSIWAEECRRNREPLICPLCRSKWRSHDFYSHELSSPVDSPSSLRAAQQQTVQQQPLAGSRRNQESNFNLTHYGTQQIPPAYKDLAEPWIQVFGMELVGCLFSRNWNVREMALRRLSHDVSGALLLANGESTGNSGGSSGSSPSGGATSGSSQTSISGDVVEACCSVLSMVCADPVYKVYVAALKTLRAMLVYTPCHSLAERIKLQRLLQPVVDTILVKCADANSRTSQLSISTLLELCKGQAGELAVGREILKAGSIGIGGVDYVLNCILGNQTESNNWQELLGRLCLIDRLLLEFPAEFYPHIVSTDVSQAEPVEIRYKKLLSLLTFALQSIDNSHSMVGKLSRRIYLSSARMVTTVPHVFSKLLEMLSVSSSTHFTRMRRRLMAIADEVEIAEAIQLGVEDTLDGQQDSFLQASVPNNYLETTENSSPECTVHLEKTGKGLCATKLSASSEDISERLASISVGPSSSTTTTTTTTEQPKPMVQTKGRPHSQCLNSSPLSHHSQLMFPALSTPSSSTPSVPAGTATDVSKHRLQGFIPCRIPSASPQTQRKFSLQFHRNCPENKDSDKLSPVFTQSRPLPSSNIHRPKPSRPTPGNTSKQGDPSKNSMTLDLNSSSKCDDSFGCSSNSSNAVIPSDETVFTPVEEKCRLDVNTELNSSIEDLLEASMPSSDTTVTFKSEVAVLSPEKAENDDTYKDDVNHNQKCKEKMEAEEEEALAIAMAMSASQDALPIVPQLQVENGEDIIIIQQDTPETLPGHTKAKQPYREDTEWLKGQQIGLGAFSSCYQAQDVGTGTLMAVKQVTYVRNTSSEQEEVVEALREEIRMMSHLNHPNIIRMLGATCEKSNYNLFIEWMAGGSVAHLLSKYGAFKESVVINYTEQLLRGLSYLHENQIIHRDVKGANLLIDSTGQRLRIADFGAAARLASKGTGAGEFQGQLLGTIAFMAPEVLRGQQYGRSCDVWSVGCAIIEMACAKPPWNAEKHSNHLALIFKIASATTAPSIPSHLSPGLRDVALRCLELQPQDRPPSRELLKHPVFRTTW
For another assay, the target named is Mu-type opioid receptor (Homo sapiens, UniProt P35372). The assay can be described thus: Selectivity interaction (Opioid Mu GTPgS agonist assay ) EUB0000877a OPRM1.
Chain of Mu-type opioid receptor (P35372 whole entry): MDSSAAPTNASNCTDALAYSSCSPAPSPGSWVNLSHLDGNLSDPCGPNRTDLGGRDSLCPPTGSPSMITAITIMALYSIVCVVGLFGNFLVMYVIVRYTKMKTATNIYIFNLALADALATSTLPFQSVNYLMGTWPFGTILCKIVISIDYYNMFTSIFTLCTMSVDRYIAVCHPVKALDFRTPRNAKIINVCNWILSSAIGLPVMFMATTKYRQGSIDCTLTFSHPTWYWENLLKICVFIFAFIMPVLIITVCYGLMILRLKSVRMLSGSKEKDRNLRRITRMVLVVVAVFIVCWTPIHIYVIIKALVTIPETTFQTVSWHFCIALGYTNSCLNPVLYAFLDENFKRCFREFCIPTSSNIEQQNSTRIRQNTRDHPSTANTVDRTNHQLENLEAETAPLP
For assay [9], the target named is Homeodomain-interacting protein kinase 3 (Homo sapiens, UniProt Q9H422). Nature of the assay: Selectivity interaction (KinomeScan (DiscoverX)) EUB0001619a HIPK3. The following applies: at 1 µM.
Chain of Homeodomain-interacting protein kinase 3 (Q9H422 whole entry, looked up): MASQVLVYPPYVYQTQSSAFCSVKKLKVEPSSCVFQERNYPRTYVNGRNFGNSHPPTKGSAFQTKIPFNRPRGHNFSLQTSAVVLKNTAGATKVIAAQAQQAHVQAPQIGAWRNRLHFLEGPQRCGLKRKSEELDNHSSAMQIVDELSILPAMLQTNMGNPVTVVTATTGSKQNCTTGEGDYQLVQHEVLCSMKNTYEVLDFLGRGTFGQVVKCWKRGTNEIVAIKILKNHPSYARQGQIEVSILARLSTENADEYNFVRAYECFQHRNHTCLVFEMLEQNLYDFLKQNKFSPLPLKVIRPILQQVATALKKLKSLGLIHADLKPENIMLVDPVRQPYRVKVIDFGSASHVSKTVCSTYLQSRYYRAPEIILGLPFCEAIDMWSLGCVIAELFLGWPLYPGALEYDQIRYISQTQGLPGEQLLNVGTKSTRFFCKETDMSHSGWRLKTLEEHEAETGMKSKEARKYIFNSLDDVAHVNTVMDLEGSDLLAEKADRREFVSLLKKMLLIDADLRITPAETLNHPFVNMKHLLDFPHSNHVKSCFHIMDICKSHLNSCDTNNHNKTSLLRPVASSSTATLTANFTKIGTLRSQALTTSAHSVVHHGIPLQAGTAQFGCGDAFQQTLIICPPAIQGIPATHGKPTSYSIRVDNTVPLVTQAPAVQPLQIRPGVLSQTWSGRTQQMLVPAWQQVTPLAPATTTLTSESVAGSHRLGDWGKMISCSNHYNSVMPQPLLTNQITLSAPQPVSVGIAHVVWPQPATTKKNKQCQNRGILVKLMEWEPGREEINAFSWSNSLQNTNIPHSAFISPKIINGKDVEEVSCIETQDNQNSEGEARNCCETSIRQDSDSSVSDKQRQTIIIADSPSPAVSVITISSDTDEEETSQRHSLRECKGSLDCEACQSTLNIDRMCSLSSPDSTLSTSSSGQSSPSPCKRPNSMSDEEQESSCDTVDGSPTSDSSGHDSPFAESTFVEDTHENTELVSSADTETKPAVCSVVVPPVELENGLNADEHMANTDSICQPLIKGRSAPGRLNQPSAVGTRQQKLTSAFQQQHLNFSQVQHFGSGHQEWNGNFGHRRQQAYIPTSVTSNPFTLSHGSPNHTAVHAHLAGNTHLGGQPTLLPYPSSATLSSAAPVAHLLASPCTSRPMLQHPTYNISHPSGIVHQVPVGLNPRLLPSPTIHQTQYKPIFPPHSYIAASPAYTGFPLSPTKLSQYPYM
Assay [10] concerns Tyrosine-protein kinase ABL1 (Homo sapiens), P00519 [H396P]. Nature of the assay: Selectivity interaction (KinomeScan (DiscoverX)) EUB0000618a ABL1. The following applies: at 10 µM.

Chain of Glycogen synthase kinase-3 alpha (P49840 2-483 limits assumed): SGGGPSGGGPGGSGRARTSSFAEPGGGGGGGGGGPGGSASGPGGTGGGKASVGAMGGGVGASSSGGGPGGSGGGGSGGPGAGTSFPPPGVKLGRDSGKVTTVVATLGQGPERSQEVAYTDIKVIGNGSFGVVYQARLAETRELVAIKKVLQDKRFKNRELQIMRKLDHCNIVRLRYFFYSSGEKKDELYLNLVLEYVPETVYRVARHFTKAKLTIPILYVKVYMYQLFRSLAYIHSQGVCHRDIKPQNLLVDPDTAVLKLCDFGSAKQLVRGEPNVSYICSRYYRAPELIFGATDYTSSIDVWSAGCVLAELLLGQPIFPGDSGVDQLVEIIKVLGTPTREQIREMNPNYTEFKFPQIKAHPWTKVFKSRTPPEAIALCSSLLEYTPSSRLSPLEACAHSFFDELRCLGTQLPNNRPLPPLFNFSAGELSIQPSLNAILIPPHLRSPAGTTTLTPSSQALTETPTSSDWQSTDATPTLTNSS
Chain of Tyrosine-protein kinase receptor UFO (Homo sapiens), P30530 [R499C] (P30530 whole entry R499C): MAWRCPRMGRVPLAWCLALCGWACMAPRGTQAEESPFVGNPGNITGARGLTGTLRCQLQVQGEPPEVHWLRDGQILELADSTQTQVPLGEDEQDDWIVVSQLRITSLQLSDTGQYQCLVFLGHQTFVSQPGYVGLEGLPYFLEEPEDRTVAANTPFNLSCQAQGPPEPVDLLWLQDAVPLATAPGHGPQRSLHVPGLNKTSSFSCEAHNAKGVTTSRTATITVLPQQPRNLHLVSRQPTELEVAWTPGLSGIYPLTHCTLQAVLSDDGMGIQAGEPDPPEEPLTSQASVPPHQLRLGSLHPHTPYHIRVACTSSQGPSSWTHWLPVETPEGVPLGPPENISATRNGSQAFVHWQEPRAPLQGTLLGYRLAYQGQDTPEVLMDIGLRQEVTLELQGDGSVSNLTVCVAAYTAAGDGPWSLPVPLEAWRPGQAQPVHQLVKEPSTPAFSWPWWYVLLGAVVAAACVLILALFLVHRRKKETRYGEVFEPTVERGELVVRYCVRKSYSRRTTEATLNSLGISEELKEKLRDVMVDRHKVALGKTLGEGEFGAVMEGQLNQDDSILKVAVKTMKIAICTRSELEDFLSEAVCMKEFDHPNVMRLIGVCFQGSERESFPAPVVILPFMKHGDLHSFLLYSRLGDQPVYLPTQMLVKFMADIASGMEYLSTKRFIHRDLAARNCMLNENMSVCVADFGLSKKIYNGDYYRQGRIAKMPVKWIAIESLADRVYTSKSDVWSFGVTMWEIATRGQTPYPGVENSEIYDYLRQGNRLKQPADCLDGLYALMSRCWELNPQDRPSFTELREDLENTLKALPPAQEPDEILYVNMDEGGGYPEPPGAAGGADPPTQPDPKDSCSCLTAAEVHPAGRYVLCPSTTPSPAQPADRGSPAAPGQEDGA

`Cc1cc([C@@H](C)Nc2ccccc2C(=O)O)c2nc(N3CCOCC3)cc(=O)n2c1` [AZD-6482]: the % of control in assay [1] was found to be 98%.
In assay [2], `CC(=O)Nc1cccc(-n2c(=O)n(C3CC3)c(=O)c3c(Nc4ccc(I)cc4F)n(C)c(=O)c(C)c32)c1` displayed a % of control of 99%.
`COc1cc(Nc2nc(C)cc(-c3cnn4nc(OC)ccc34)n2)cc(C(F)(F)F)c1` had a % of control in assay [3] of 97%.
Consider `CN(C)CCOc1ccc(-c2nc(-c3ccncc3)c(-c3ccc4c(c3)CC/C4=N\O)[nH]2)cc1`, for which, in assay [4], the % of control stood at 99%.
In turn, `Cc1cc(F)c(C(=O)Nc2cccc(-c3nncn3C(C)C)n2)cc1-n1cnc(C2CC2)c1` gave a % of control in [5] of 100%.
`Cn1cc(-n2cnc3c(NCc4nc5cc(Cl)c(Cl)cc5[nH]4)nc(N4CCOCC4)nc32)cn1`: the % of inhibition in assay [6] is -15.8%.
`CC[C@@H]1[C@H](F)C(=O)N[C@@H]1COc1nccc2cc(C(N)=O)c(OC)cc12` [ZIMLOVISERTIB]: in assay [7], the % of inhibition was 29.4%.
Consider `COc1cc(N(C)c2ccnc3ccc(C(F)(F)F)cc23)cc(OC)c1OC`, for which the % binding in [8] was 74%.
In turn, `CCC(=O)N1CC[C@H](Nc2ncnc3c2CN(c2cnc(OC)c(C(F)(F)F)c2)CC3)C1` [LENIOLISIB] registered an IC50 at Mu-type opioid receptor greater than 30 µM.
Turning to `N#Cc1cccc(-c2c[nH]c3ncnc(N4CCOCC4)c23)c1`, in assay [9], the % of control was determined as 47%.
The compound `O[C@H]1CC[C@H](Nc2ncc3nc(Nc4c(F)cc(F)cc4F)n([C@H]4CCOC4)c3n2)CC1` displayed a % of control in assay [10] of 31%.
